Consider one substance from EP0126817A1, “Suppressing of graft rejection in organ transplantation” (SHANKSVILLE CORPORATION N.V., priority 1983, dated 1984).

What all share (format): cell-based
The subject of one test is cytotoxic T lymphoblasts. Briefly: Chromium release test: inhibition of tumor cell killing by cytotoxic T cells activated by interleukin 2. As to conditions: HeLa tumor cells labelled with radioactive chromium, 2 micrograms per ml of culture medium. How it is done:
The following test is conducted to determine the inhibition of tumor cell killing capability of cytotoxic T cells activated by interleukin 2. Tumor cells from HeLa strain are labelled with radioactive chromium. The cells are washed and divided into two portions comprising the same cell number. Both portions are coincubated with cytotoxic T lymphoblasts for 18 hours. The culture medium contains IL-2. To one of the portions, at the beginning of the cocultivation, desialo GM1 is added'in concentration of 2 micrograms per ml of culture medium. The culture medium is decanted and the cells are pelleted in a centrifuge.

For test [1], the system named is Peripheral blood lymphocytes. Briefly: T lymphocyte blast transformation in IL-2 containing culture medium pretreated with the ganglioside and dialysed. Conditions: IL-2 medium RPMI 1640 treated with 5 micrograms per ml at 37°C for 30 minutes, dialysed 24 hours at 4°C; cells incubated 7 days. The protocol:
This Example illustrates that asialo GM1 reacts with a soluble mediator for T lymphocyte blastogenesis inhibiting cytotoxic T cell formation. Peripheral blood lymphocytes are isolated by a density gradient centrifugation on ficoll hypaque and incubated 24 hours in the absence of serum proteins. Interleukin 2 containing tissue culture medium RPMI 1640 is treated with asialo GM1 in a concentration of 5 micrograms per ml of culture medium. The incubation with asialo GM1 is performed at 37°C for 30 minutes. Thereafter,the treated culture medium is dialysed against RPMI 1640 without supplements for 24 hours at a temperature of 4°C. The cells are incubated in the dialysed (and thus containing no free asialo GM1) culture medium for 7 days. For dialysis, the critical micellar concentration (CMC) of the ganglioside has to be regarded. If it is exceeded, dialysis will be impossible. CMC values for each ganglioside have been established, and are readily available.

In another test the test system is T cell blasts. The experiment in a line: In vitro T cell culture systems containing IL-2 (general finding). The text has this: This observation therefore leads to an in vivo procedure for modification of the cell mediated immunological graft rejection mechanism by blocking the formation of cytotoxic T cells at the level of the T effector cells and without destroying macrophage cells. Accordingly, the procedure of the present invention is highly advantageous as compared to presently available techniques for transplant protection, particularly by the use of immunosuppressive drugs. […] Therefore, such drugs will subject the patient to increased risk of infectious diseases. […] At the time of the graft transplantation therefore, the consequence of IL-2 and T cell blasts will allow the latter to proliferate until the IL-2 is consumed. This process generally requires several days. In contrast, the immunosuppressive blocking agents of this invention require less than 24 hours to effectively terminate cytotoxic T cell proliferation and to kill off any existing cytotoxic T cells.

In the case of “Gal(beta 1-3)GalNac(beta 1-4)Glc(beta 1-1)Cer [asialo GM1]”, the “% of Cr released, Target and T cell” value in the test with cytotoxic T lymphoblasts (coincubated with cytotoxic T lymphoblasts for 18 hours, IL-2 medium) was determined as 5.3%. Further, in the test with cytotoxic T lymphoblasts (control in place of T cells, 18 hours), the “% of Cr released, Target and control” value turned out to be 3.8%. The “blast transformation of T cells” value in test [1] is on record as “no blast transformation of T cells is observed”. The “proliferation of T cell blasts in growing T cell lines” value with T cell blasts is “prevents proliferation of T cell blasts”.
